Read-outs that look alike come from different tables or passages of the source.
Legend:
Type in all cases: cell-based
[1] = system: NCI-H2170 (HER2 wild type) cells; test: Tumor cell proliferation assay NCI-H2170 (HER2 wild type); conditions: Homo sapiens, 72 h, CellTiter-Glo, read-out: GI50 NCI H-2170 HER2 wt amp.
Description: (§1) For proliferation assays, NCI-H2170 (HER2 wild type), NCI-H2170 HER2 YVMA and EGFR WT dependent A431 cells were used. NCI-H2170 HER2 YVMA or NCI-H2170 cells were seeded into 96-well plates at 750 cells/60 μL in growth media (RPMI ATCC+10% FBS, +Penicillin/Streptomycin). […] Compounds were added by using a HP D3000 Digital Dispenser one day after plating the cells. All treatments were performed in technical triplicates. Treated cells were incubated for 72 h at 37° C. with 5% CO2. CellTiter-Glo® Luminescent Cell Viability Assay (Promega) was performed and chemoluminescence was measured by using the multilabel Plate Reader VICTOR X4. The raw data were imported into and analyzed with the Boehringer Ingelheim proprietary software MegaLab (curve fitting based on the program PRISM, GraphPad Inc.).

[2] = system: Ba/F3 cells HER2 mutants (YVMA); test: Ba/F3 proliferation assay HER2 YVMA; conditions: Mus musculus, BaF3, 72 h, CellTiter-Glo
Description: (§2) Ba/F3 cell model generation and proliferation assays
(§3) Plasmids containing HER2 mutants and EGFR WT were obtained from GeneScript. To generate EGFR/HER2-dependent Ba/F3 models, Ba/F3 cells were transduced with retroviruses containing vectors that harbor EGFR WT, HER2 WT or HER2 mutants (YVMA). Platinum-E cells (Cell Biolabs) were used for retrovirus packaging. Retrovirus was added to Ba/F3 cells. To ensure infection, 4 μg/mL polybrene was added and cells were spinfected. Infection efficiency was confirmed by measuring GFP-positive cells using a cell analyzer. Cells with an infection efficiency of 10% to 20% were further cultivated and puromycin selection with 1 μg/mL was initiated. As a control, parental Ba/F3 cells were used to assess the selection status. Selection was considered successful when parental Ba/F3 cells cultures died. To evaluate the transforming potential of HER2 mutations, the growth medium was no longer supplemented with IL-3. Ba/F3 cells harboring the empty vector were used as a control. A switch from IL-3 to EGF was performed for Ba/F3 cells with the EGFR WT known for its dependency on EGF ligand. Approximately ten days before conducting the experiments, puromycin was left out. For proliferation assays (data in table 12 and 14), Ba/F3 cells were seeded into 96-well plates at 5×10^3 cells/100 μL in growth media. Compounds were added by using a HP D3000 Digital Dispenser. All treatments were performed in technical triplicates. Treated cells were incubated for 72 h at 37° C. with 5% CO2. CellTiter-Glo® Luminescent Cell Viability Assay (Promega) was performed and chemoluminescence was measured by using the multilabel Plate Reader VICTOR X4. The raw data were imported into and analyzed with the Boehringer Ingelheim proprietary software MegaLab (curve fitting based on the program PRISM, GraphPad Inc.).

Ba/F3 cells HER2 WT = test: Ba/F3 proliferation assay HER2 WT; conditions: Mus musculus, BaF3, 72 h, CellTiter-Glo
Description: as §2, §3

EGFR wild type (WT) = biological target: T1, EGFR wild type (WT) (Homo sapiens, UniProt P00533); test: pEGFR assay (AlphaScreen Surefire, HEK cells); conditions: HEK cells expressing EGFR WT, phosphorylation at Tyr1068, 4 h
T1 construct: expressed in transfected cells; host or cells: human HEK cells (ATCC CRL-1573), retroviral transduction, puromycin selection
Description: This assay quantifies the phosphorylation of EGFR at Tyr1068 and was used to measure the inhibitory effect of compounds on the transgenic EGFR wild type (WT) protein expressed in HEK cells.
Transduced cells were selected using puromycin. p-EGFR Tyr1068 was determined using the AlphaScreen Surefire pEGF Receptor (Tyr1068) Assay (PerkinElmer, TGRERS). For the assay, HEK EGFR WT cells were seeded in MEM medium with 10% FBS. […] Subsequently, 60.000 cells/well in 60 μL were added. Cells were incubated with compounds for 4 h at 37° C. […] The mixture was incubated at a temperature of 20-25° C. with shaking (700 rpm) for 20 min. After centrifugation, 4 μL of the lysate were transferred to Proxiplates. […] Plates were shaken for 1 min (1400 rpm) and incubated for 2 h at a temperature of 20-25° C. in the dark.
This cellular phospho-EGFR (pEGFR) compound dose-response assay quantifies the phosphorylation of EGFR at Tyr1068 in HEK cells expressing EGFR WT. The results of the assay are provided as IC50 values.

[3] = system: NCI-H2170 HER2 YVMA cells; test: Tumor cell proliferation assay NCI-H2170 HER2 YVMA; conditions: Homo sapiens, 72 h, CellTiter-Glo, read-out: GI50 NCI H-2170 HER2 YVMA
Text: HER2 YVMA tumor cell line model generation and proliferation assays
Homology-directed genome engineering was employed to insert a 12 nucleotide sequence encoding YVMA into Exon 20 of the genomic HER2 locus in NCI-H2170 cells. […] The DNA template containing the HER2 exon 20 YVMA insertion variant was obtained from GenScript. PCR followed by Sanger sequencing was used to confirm the presence of the 12-nucleotide insertion in HER2 Exon 20 resulting in the YVMA amino acid duplication.
as §1

HER2 YVMA = biological target: T2, HER2 YVMA (Homo sapiens, UniProt P04626, INS775YVMA); test: pHER2 (ERBB2) YVMA assay (AlphaScreen Surefire, HEK cells); conditions: HEK cells expressing HER2 YVMA, phosphorylation at Tyr1221/1222, 4 h
T2 construct: expressed in transfected cells; host or cells: human HEK cells, retroviral transduction, puromycin selection, doxycycline-inducible expression
Description: For the assay, HEK HER2 YVMA cells were seeded in MEM medium with 10% FBS. 4 hours prior to compound addition, HER2 YVMA expression was induced using 1 μg/ml Doxycycline. […] Subsequently, 60.000 cells/well in 60 μL were added. Cells were incubated with compounds for 4 h at 37° C. […] The mixture was incubated at a temperature of 20-25° C. with shaking (700 rpm) for 20 min. After centrifugation, 4 μL of the lysate were transferred to Proxiplates. […] Plates were shaken for 1 min (1400 rpm) and incubated for 2 h at a temperature of 20-25° C. in the dark.
The results of the assay are provided as IC50 values.

Ba/F3 cells EGFR WT = test: Ba/F3 proliferation assay EGFR WT (EGF dependent); conditions: Mus musculus, CellTiter-Glo, read-out: GI50 BAF3 EGF dep.
Description: as §2, §3

[4] = system: EGFR WT dependent A431 cells; test: Tumor cell proliferation assay A431 (EGFR WT dependent); conditions: Homo sapiens, A-431, 72 h, CellTiter-Glo, read-out: GI50 A431 EGFR wt amp.
Description: as §1

[5] = BaF3, EGF instead of IL-3, 72 h
[6] = BaF3, prior art compounds, EGF instead of IL-3, 72 h

T2 sequence (P04626 with tags, fused parts or gaps INS775YVMA): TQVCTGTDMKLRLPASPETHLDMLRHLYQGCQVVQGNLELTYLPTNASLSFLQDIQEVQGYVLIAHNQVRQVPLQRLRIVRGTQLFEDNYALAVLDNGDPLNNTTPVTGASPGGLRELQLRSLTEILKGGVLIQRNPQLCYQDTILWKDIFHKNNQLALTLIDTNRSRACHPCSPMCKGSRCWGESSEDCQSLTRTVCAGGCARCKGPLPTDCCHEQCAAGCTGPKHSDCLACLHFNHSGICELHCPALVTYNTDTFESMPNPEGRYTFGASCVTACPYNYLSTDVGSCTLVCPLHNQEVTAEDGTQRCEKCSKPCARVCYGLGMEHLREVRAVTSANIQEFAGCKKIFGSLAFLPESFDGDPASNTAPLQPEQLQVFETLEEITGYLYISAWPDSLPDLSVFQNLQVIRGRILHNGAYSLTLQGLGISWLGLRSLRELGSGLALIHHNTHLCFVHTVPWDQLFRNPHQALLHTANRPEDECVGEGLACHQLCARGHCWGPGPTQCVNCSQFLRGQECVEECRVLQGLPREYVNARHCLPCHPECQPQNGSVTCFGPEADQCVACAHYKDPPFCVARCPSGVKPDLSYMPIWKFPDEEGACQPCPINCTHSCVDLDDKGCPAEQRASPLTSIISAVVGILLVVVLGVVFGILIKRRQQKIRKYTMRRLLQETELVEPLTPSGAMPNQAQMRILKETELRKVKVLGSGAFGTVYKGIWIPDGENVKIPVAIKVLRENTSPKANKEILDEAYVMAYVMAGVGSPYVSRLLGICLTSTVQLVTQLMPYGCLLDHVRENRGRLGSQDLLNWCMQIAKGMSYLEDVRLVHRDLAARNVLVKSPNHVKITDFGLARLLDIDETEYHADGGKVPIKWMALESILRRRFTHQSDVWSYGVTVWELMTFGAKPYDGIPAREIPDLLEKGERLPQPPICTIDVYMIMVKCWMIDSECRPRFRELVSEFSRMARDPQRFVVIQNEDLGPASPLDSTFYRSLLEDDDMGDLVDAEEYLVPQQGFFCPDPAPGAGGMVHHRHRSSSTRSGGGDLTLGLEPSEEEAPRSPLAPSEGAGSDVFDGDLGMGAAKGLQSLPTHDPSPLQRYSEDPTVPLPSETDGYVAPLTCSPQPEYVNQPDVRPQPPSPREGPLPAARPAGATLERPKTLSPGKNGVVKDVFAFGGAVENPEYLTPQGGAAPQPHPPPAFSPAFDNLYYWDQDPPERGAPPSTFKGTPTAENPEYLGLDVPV
T1 sequence (P00533 25-1210): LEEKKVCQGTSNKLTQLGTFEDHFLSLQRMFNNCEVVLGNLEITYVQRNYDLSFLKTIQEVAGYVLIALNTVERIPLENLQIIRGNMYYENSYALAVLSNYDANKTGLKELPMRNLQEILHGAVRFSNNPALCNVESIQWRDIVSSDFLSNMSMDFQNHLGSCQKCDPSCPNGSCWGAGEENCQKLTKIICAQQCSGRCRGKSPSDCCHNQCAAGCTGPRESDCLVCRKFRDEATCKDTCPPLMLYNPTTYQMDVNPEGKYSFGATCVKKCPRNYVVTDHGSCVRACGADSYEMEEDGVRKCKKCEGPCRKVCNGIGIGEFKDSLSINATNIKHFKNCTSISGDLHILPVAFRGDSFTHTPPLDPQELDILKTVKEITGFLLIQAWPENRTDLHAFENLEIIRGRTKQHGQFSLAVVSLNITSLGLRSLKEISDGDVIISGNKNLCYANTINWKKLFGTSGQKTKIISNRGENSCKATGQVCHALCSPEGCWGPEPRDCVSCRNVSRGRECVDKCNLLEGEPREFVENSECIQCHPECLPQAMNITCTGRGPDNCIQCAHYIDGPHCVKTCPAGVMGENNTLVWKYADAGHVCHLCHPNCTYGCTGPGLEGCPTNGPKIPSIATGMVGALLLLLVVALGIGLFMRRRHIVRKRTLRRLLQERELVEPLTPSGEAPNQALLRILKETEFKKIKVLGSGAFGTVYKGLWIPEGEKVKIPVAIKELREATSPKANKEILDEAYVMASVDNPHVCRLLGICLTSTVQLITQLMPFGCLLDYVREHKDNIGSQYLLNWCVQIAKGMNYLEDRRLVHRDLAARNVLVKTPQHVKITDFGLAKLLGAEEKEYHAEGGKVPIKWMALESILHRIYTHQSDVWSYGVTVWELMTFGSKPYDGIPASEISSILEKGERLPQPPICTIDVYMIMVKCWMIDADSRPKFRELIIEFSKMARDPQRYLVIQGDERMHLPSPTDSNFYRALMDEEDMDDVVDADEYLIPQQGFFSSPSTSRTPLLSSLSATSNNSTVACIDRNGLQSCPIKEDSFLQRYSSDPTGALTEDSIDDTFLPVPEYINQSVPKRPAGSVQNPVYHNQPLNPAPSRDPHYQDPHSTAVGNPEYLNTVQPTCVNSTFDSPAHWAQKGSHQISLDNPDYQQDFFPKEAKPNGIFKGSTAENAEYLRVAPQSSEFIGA

GI50 [2] [nM]	GI50 (Ba/F3 cells HER2 WT) [nM]	IC50 (EGFR wild type (WT)) [nM]	IC50 (HER2 YVMA) [nM]	GI50 (Ba/F3 cells EGFR WT; [5]) [nM]	GI50 [4] [nM]	GI50 ([2]; prior art compounds) [nM]	GI50 ([4]; prior art compounds) [nM]	GI50 (Ba/F3 cells HER2 WT; prior art compounds) [nM]	GI50 (Ba/F3 cells EGFR WT; [6]) [nM]	Structure (SMILES)	GI50 [1] [nM]	GI50 [3] [nM]	GI50 ([1]; prior art compounds) [nM]	GI50 ([3]; prior art compounds) [nM]
18	1	265	10	2400	> 5000					C=CC(=O)N1CCN(c2ncc3ncnc(Nc4ccc(Oc5ccc6c(c5)ncn6C)c(C)c4)c3n2)CC1 [Compound I-1]	16	82		
9	1	380	10	1380	4660					C#Cc1cc(Nc2ncnc3cnc(N4CCN(C(=O)C=C)CC4)nc23)ccc1Oc1ccc2c(c1)ncn2C [Compound I-2]	9	50		
12	1	1170	17	2800	> 5000					C=CC(=O)N1CCN(c2ncc3ncnc(Nc4ccc(Oc5ccc6c(c5)ncn6C)c(OC)c4)c3n2)CC1 [Compound I-3]	18	74		
17	2	221	10	904	> 5000					C=CC(=O)N1CCN(c2ncc3ncnc(Nc4ccc(Oc5ccc6c(c5)ncn6C)c(Cl)c4)c3n2)CC1 [Compound I-4]	11	81		
20	1	232	15	572	2880					C=CC(=O)N1CCN(c2ncc3ncnc(Nc4ccc(Oc5ccc6c(c5)ncn6C)c(Br)c4)c3n2)CC1 [Compound I-5]	16	76		
27	3	1110	19	1840	2640					C=CC(=O)N1CCN(c2ncc3ncnc(Nc4ccc(Oc5ccc6c(c5)ncn6C)c(F)c4)c3n2)CC1 [Compound I-6]	26	146		
37	6	996	30	1110	> 5000					C=CC(=O)N1CCN(c2ncc3ncnc(Nc4cc(Cl)c(Oc5ccc6c(c5)ncn6C)c(Cl)c4)c3n2)CC1 [Compound I-7]	25	118		
31	3	355	22	1040	3930					C=CC(=O)N1CCN(c2ncc3ncnc(Nc4cc(F)c(Oc5ccc6c(c5)ncn6C)c(Cl)c4)c3n2)CC1 [Compound I-8]	21	172		
23	5	485	34	1120	2510					C=CC(=O)N1CCN(c2ncc3ncnc(Nc4cc(Br)c(Oc5ccc6c(c5)ncn6C)c(Br)c4)c3n2)CC1 [Compound I-9]	46	203		
64	8	1770	80	1630	> 5000					C=CC(=O)N1CCN(c2ncc3ncnc(Nc4cc(Br)c(Oc5ccc6c(c5)ncn6C)cc4Cl)c3n2)CC1 [Compound I-10]	52	216		
40	3	1170	25	644	> 5000					C=CC(=O)N1CCN(c2ncc3ncnc(Nc4cc(F)c(Oc5ccc6c(c5)ncn6C)c(F)c4)c3n2)CC1 [Compound I-11]	47	339		
						60	> 5000			C=CC(=O)Nc1ccc2ncnc(Nc3ccc(Oc4ccc5c(c4)ncn5C)c(C)c3)c2c1 [WO 2007/059257 Ex.185, reference compound]				
						14	16	3	13	C=CC(=O)Nc1cccc(-n2c(=O)c(Oc3ccc(F)cc3F)cc3cnc(Nc4cnn(C)c4)nc32)c1 [WO 2019/046775 Comp.2, reference compound]			22	34
						17			31	C=CC(=O)Nc1ccc2ncnc(Nc3ccc(OCc4cccc(F)c4)c(Cl)c3)c2c1 [allitinib, reference compound]			36	
						44			70	C=CC(=O)N1CCC[C@@H](n2nc(-c3ccc(Oc4ccccc4)cc3)c3c(N)ncnc32)C1 [ibrutinib, reference compound]			16	
						5	55		14	CCOc1cc2ncc(C#N)c(Nc3ccc(OCc4ccccn4)c(Cl)c3)c2cc1NC(=O)/C=C/CN(C)C [neratinib, reference compound]			3	37
						2	1	1	1	C=CC(=O)N1CCC(Oc2cc3c(Nc4ccc(Cl)c(Cl)c4F)ncnc3cc2OC)CC1 [poziotinib, reference compound]			1	5
								10		Cc1cc(Nc2ncnc3ccc(NC4=NC(C)(C)CO4)cc23)ccc1Oc1ccn2ncnc2c1 [tucatinib, reference compound]			58	

From patent publication US20230126204A1, “[1,3]DIAZINO[5,4-d]PYRIMIDINES AS HER2 INHIBITORS” (Boehringer Ingelheim International GmbH, priority 2020, published 2023)
